Activity calls are given as the source filed them. The calls are words filed in the database; no cut-off is given here. Where a SMILES comes first, the peptide text is derived from it. The star is where a group is joined. Propyl(2R-PamO,3-PamO) = CCCCCCCCCCCCCCCC(=O)OC[C@H](C*)OC(=O)CCCCCCCCCCCCCCC; Palmitoyl = CCCCCCCCCCCCCCCC(=O)*
Legend:
TLR2/TLR6 [1] = molecular target: T1, TLR2/TLR6 (Homo sapiens, UniProt O60603+Q9Y2C9); experiment: Agonist activity at TLR2/TLR6 in human PBMC cells assessed as increase in TNF-alpha production at 0.1 ug/ml incubated for 24 hrs; type: cell-based; conditions: filed as agonist, dose 0.1 µg/ml
T1 sequence (O60603 whole entry): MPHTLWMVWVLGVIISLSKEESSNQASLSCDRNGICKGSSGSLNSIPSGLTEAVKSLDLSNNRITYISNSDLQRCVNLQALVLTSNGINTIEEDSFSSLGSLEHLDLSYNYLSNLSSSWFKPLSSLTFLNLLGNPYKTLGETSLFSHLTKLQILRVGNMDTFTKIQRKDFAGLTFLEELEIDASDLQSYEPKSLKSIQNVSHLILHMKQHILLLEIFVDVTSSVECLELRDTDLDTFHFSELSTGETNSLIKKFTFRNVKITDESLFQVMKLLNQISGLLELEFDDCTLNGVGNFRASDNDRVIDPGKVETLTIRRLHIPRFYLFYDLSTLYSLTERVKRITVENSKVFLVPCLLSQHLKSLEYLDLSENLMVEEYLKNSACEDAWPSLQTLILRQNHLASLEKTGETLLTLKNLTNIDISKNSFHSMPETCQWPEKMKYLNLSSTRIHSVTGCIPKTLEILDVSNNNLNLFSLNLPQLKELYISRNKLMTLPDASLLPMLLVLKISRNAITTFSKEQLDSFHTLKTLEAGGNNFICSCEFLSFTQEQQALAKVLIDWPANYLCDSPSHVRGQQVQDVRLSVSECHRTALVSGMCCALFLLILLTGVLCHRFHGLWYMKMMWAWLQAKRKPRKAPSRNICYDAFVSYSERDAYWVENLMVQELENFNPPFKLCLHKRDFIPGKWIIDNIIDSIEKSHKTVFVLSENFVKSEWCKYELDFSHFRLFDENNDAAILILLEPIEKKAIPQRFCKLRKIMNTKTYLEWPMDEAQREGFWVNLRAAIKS
T1 sequence (Q9Y2C9 whole entry): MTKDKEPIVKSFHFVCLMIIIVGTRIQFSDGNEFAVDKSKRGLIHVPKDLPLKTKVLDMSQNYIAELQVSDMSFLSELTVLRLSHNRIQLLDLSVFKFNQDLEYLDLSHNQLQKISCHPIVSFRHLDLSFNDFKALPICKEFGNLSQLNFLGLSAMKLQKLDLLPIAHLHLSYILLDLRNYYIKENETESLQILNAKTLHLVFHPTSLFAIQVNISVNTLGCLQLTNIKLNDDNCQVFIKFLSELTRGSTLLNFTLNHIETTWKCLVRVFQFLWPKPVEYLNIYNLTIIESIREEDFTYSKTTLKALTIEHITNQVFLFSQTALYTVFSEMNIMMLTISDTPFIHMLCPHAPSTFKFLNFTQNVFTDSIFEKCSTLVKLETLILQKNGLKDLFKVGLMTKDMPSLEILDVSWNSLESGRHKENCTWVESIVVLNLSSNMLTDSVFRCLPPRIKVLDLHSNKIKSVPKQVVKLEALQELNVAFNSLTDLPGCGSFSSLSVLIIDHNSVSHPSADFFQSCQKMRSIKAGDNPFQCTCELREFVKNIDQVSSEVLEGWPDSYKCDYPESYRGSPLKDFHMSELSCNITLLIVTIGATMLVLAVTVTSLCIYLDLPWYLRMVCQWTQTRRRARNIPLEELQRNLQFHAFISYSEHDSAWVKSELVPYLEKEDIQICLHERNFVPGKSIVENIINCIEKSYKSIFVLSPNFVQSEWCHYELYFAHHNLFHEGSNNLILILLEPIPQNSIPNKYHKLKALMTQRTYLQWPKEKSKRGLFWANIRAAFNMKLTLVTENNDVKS

TLR2/TLR6 [2] = molecular target: T1, TLR2/TLR6; experiment: Agonist activity at TLR2/TLR6 in human PBMC cells assessed as increase in IL-6 production at 0.1 ug/ml incubated for 24 hrs; type: cell-based; conditions: filed as agonist, dose 0.1 µg/ml
TLR2/TLR6 [3] = molecular target: T1, TLR2/TLR6; experiment: Agonist activity at TLR2/TLR6 in human PBMC cells assessed as increase in IL-10 production at 0.1 ug/ml incubated for 24 hrs; type: cell-based; conditions: filed as agonist, dose 0.1 µg/ml
TLR2/TLR6 [4] = molecular target: T1, TLR2/TLR6; experiment: Agonist activity at human TLR2/TLR6 expressed in HEK-Blue hTLR2-TLR6 cells by SEAP reporter gene based Quanti-blue assay; type: cell-based
Mus musculus [5] = experiment: Protection against influenza A/California/04/2009 virus-challenged C57BL/6 mouse assessed as effect on body weight at 10 ug, IM administered twice 2 weeks apart along with recombinant influenza A/California/04/2009 HA protein immunization; type: functional, organism-based; conditions: dose 10.0 µg
Mus musculus [6] = experiment: Immuno-adjuvant activity in C57BL/6 mouse immunized with recombinant hepatitis B surface antigen assessed as increase in anti-HBs antibody at 10 ug, IM administered twice 2 weeks apart by ELISA analysis; type: functional, organism-based; conditions: dose 10.0 µg
Mus musculus [7] = experiment: Immuno-adjuvant activity in C57BL/6 mouse immunized with recombinant hepatitis B surface antigen assessed as increase in IgG2/IgG1 ratio at 10 ug, IM administered twice 2 weeks apart by ELISA analysis; type: functional, organism-based; conditions: dose 10.0 µg
Mus musculus [8] = experiment: Immuno-adjuvant activity in C57BL/6 mouse immunized with recombinant influenza A/California/04/2009 HA protein assessed as increase in anti-HAs antibody at 10 ug, IM administered twice 2 weeks apart by ELISA analysis; type: functional, organism-based; conditions: dose 10.0 µg
Mus musculus [9] = experiment: Protection against influenza A/California/04/2009 virus-challenged C57BL/6 mouse assessed as effect on survival at 10 ug, IM administered twice 2 weeks apart along with recombinant influenza A/California/04/2009 HA protein immunization; type: functional, organism-based; conditions: dose 10.0 µg
TLR2/TLR6 (Mus musculus) [10] = molecular target: T2, TLR2/TLR6 (Mus musculus) (UniProt Q9QUN7+Q9EPW9); experiment: Agonist activity at TLR2/TLR6 in C57BL/6 mouse spleen dendritic cells assessed as increase in CD40 expression at 10 to 0.1 ug/ml incubated for 24 hrs by fluorescence based flow cytometric analysis; type: tissue-based; conditions: Dendritic cell, filed as agonist, dose 10-0.1 µg/ml
TLR2/TLR6 (Mus musculus) [11] = molecular target: T2, TLR2/TLR6 (Mus musculus); experiment: Agonist activity at TLR2/TLR6 in C57BL/6 mouse spleen B cells assessed as increase in CD86 expression at 10 to 0.1 ug/ml incubated for 24 hrs by fluorescence based flow cytometric analysis; type: tissue-based; conditions: B cell, filed as agonist, dose 10-0.1 µg/ml
TLR2/TLR6 (Mus musculus) [12] = molecular target: T2, TLR2/TLR6 (Mus musculus); experiment: Agonist activity at TLR2/TLR6 in C57BL/6 mouse spleen dendritic cells assessed as increase in CD86 expression at 10 to 0.1 ug/ml incubated for 24 hrs by fluorescence based flow cytometric analysis; type: tissue-based; conditions: Dendritic cell, filed as agonist, dose 10-0.1 µg/ml
TLR2/TLR6 (Mus musculus) [13] = molecular target: T2, TLR2/TLR6 (Mus musculus); experiment: Agonist activity at TLR2/TLR6 in C57BL/6 mouse spleen B cells assessed as increase in CD40 expression at 10 to 0.1 ug/ml incubated for 24 hrs by fluorescence based flow cytometric analysis; type: tissue-based; conditions: B cell, filed as agonist, dose 10-0.1 µg/ml
TLR2/TLR6 (Mus musculus) [14] = molecular target: T2, TLR2/TLR6 (Mus musculus); experiment: Agonist activity at TLR2/TLR6 in C57BL/6 mouse spleen B cells assessed as increase in CD86 expression incubated for 24 hrs by fluorescence based flow cytometric analysis; type: tissue-based; conditions: B cell, filed as agonist, dose 10-0.1 µg/ml, DDE = dose-dependent effect
TLR2/TLR6 (Mus musculus) [15] = molecular target: T2, TLR2/TLR6 (Mus musculus); experiment: Agonist activity at TLR2/TLR6 in C57BL/6 mouse spleen dendritic cells assessed as increase in CD86 expression incubated for 24 hrs by fluorescence based flow cytometric analysis; type: tissue-based; conditions: Dendritic cell, filed as agonist, dose 10-0.1 µg/ml, DDE = dose-dependent effect
TLR2/TLR6 (Mus musculus) [16] = molecular target: T2, TLR2/TLR6 (Mus musculus); experiment: Agonist activity at TLR2/TLR6 in C57BL/6 mouse spleen dendritic cells assessed as increase in CD40 expression incubated for 24 hrs by fluorescence based flow cytometric analysis; type: tissue-based; conditions: Dendritic cell, filed as agonist, dose 10-0.1 µg/ml, DDE = dose-dependent effect
TLR2/TLR6 (Mus musculus) [17] = molecular target: T2, TLR2/TLR6 (Mus musculus); experiment: Agonist activity at TLR2/TLR6 in C57BL/6 mouse spleen B cells assessed as increase in CD40 expression incubated for 24 hrs by fluorescence based flow cytometric analysis; type: tissue-based; conditions: B cell, filed as agonist, dose 10-0.1 µg/ml, DDE = dose-dependent effect

| Structure (SMILES) | Activity (TLR2/TLR6 [1]) | Activity (TLR2/TLR6 [2]) | Activity (TLR2/TLR6 [3]) | EC50 (TLR2/TLR6 [4]) [nM] | Activity (Mus musculus [6]) | further results |
| --- | --- | --- | --- | --- | --- | --- |
| CCCCCCCCCCCCCCCC(=O)OC[C@@H](CSC[C@H](NC(C)=O)C(=O)N[C@@H](CO)C(=O)OC)OC(=O)CCCCCCCCCCCCCCC | Active | Active | Active | 252 |  |  |
| CCCCCCCCCCCCCCCC(=O)OC[C@H](CSC[C@H](NC(C)=O)C(=O)N[C@@H](CO)C(=O)OC)OC(=O)CCCCCCCCCCCCCCC | Active | Active | Active | 0.8 | Active | Activity (Mus musculus [5]): Active; Activity (Mus musculus [7]): Active; Activity (Mus musculus [8]): Active; Activity (Mus musculus [9]): Active |
| CCCCCCCCCCCCCCCC(=O)N[C@@H](CSC[C@@H](COC(=O)CCCCCCCCCCCCCCC)OC(=O)CCCCCCCCCCCCCCC)C(=O)N[C@@H](CO)C(=O)N[C@@H](CCCCN)C(=O)N[C@@H](CCCCN)C(=O)N[C@@H](CCCCN)C(=O)N[C@@H](CCCCN)C(=O)O (Palmitoyl-C(Propyl(2R-PamO,3-PamO))SKKKK-OH) | Active | Active | Active | 19.3 | Active | Activity (TLR2/TLR6 (Mus musculus) [10]): Active; Activity (TLR2/TLR6 (Mus musculus) [11]): Active; Activity (TLR2/TLR6 (Mus musculus) [12]): Active; Activity (TLR2/TLR6 (Mus musculus) [13]): Active |
| CCCCCCCCCCCCCCCC(=O)OCC(CSC[C@H](NC(=O)OC(C)(C)C)C(=O)N[C@@H](COC(C)(C)C)C(=O)OC)OC(=O)CCCCCCCCCCCCCCC (mixture of isomers) |  |  |  | 5640 |  |  |
| CCCCCCCCCCCCCCCC(=O)OCC(CSC[C@H](N)C(=O)N[C@@H](CO)C(=O)OC)OC(=O)CCCCCCCCCCCCCCC (mixture of isomers) | Active | Active | Active | 1 |  | Activity (Mus musculus [5]): Active; Activity (Mus musculus [8]): Active; Activity (Mus musculus [9]): Active |
| CCCCCCCCCCCCCCCC(=O)OC[C@H](CSC[C@H](N)C(=O)N[C@@H](CO)C(=O)OC)OC(=O)CCCCCCCCCCCCCCC | Active | Active | Active | 0.4 | Active | Activity (TLR2/TLR6 (Mus musculus) [14]): Dde; Activity (Mus musculus [5]): Active; Activity (TLR2/TLR6 (Mus musculus) [15]): Dde; Activity (Mus musculus [7]): Active; Activity (TLR2/TLR6 (Mus musculus) [16]): Dde; Activity (Mus musculus [8]): Active; Activity (TLR2/TLR6 (Mus musculus) [17]): Dde; Activity (Mus musculus [9]): Active |
| CCCCCCCCCCCCCCCC(=O)OCC(CSC[C@H](NC(C)=O)C(=O)N[C@@H](CO)C(=O)OC)OC(=O)CCCCCCCCCCCCCCC (mixture of isomers) | Active | Active | Active | 5 |  |  |
| CCCCCCCCCCCCCCCC(=O)OC[C@H](CSC[C@H](N)C(=O)N[C@@H](CO)C(=O)N[C@@H](CCCCN)C(=O)N[C@@H](CCCCN)C(=O)N[C@@H](CCCCN)C(=O)N[C@@H](CCCCN)C(=O)O)OC(=O)CCCCCCCCCCCCCCC (H-C(Propyl(2R-PamO,3-PamO))SKKKK-OH) | Active | Active | Active | 0.3 | Active | Activity (TLR2/TLR6 (Mus musculus) [10]): Active; Activity (TLR2/TLR6 (Mus musculus) [11]): Active; Activity (TLR2/TLR6 (Mus musculus) [12]): Active; Activity (TLR2/TLR6 (Mus musculus) [13]): Active |
| CCCCCCCCCCCCCCCC(=O)OC[C@@H](CSC[C@H](N)C(=O)N[C@@H](CO)C(=O)OC)OC(=O)CCCCCCCCCCCCCCC |  |  |  | 134 |  | Activity (TLR2/TLR6 (Mus musculus) [14]): Dde; Activity (TLR2/TLR6 (Mus musculus) [15]): Dde; Activity (TLR2/TLR6 (Mus musculus) [16]): Dde; Activity (TLR2/TLR6 (Mus musculus) [17]): Dde |
| CCCCCCCCCCCCCCCC(=O)OC[C@H](CSC[C@H](NC(=O)OC(C)(C)C)C(=O)N[C@@H](COC(C)(C)C)C(=O)OC)OC(=O)CCCCCCCCCCCCCCC |  |  |  | 5870 |  | Activity (TLR2/TLR6 (Mus musculus) [11]): Active; Activity (TLR2/TLR6 (Mus musculus) [12]): Active |
| CCCCCCCCCCCCCCCC(=O)OC[C@@H](CSC[C@H](NC(=O)OC(C)(C)C)C(=O)N[C@@H](COC(C)(C)C)C(=O)OC)OC(=O)CCCCCCCCCCCCCCC |  |  |  | 4270 |  |  |
